Measured values published in patent publication US5028598A, “Oxetanocin derivatives and their salts as well as use thereof” (Nippon Kayaku Kabushiki Kaisha, priority 1989, dated 1991).
In brackets after ≈: the same amount, converted by molar mass.

Columns and labels:
[1] = Cytotoxicity against MT-4 cells without virus (Trypane Blue staining, viable cell count); assay type: cell-based; details: human, no virus added, read-out: CC50 (50% cytotoxicity)
Procedure: Furthermore, cytotoxicity of Compound (lH) and Compound (lP) against MT-4 cells was examined without adding virus. After staining with […] Blue, viable cells were counted. Based on the count of viable cells where the chemical was added and where no chemical was added, a degree of inhibition was calculated. A concentration of the chemical and the degree of inhibition were plotted on semilogarithmic paper to determine 50% cytotoxicity (CC50 value).

AIDS virus = assay: Anti-AIDS viral activity: virus antigen in infected MT-4 cells by indirect fluorescent antibody method; assay type: cell-based; details: Human immunodeficiency virus 1, MT4, compound added 2 hours before virus, 10^3 to 10^4 infection units, cultured 4 days, read-out: EC50 (50% infection inhibitory concentration)
Procedure: After 0.5 ml of cell suspension prepared from MT-4 cells in 1×10^5 /ml was charged in a 24 well tray, 50 μl of a solution containing a predetermined quantity of Compound (lH) or Compound (lP) was added to the suspension. After culturing at 37° C. for 2 hours in 5% (v/v) carbon dioxide incubator, 10^3 to 10^4 infection units of AIDS virus were added and cultured for 4 days. Then, a part of the culture medium was applied onto a slide glass and immobilized with acetone, after which development of virus antigen was observed by indirect fluorescent antibody method. As the primary antibody of the fluorescent antibody method, a serum of AIDS patient was used. As its secondary antibody, FITC-labelled anti-human IgG antibody was used. Based on a proportion of the infected cells and non-infected cells where the chemical was added and where no chemical was added, a rate of infection was calculated. A concentration of the chemical and the rate of infection were plotted on semilogarithmic paper to determine 50% infection inhibitory concentration (EC50 value).

Row | SMILES | CC50 [1] [µg/mL] | EC50 (AIDS virus) [µg/mL]
1 | Nc1nnnc2c1ncn2[C@@H]1O[C@H](CO)[C@H]1CO [Compound (1H)] | > 100 | 0.035 (≈ 0.139 µM)
2 | Nc1nnnc2c1ncn2[C@@H]1O[C@H](COP(=O)(O)O)[C@H]1CO [Compound (1P)] | > 100 | 0.14 (≈ 0.421 µM)
